Data set [1] can be described thus: Zeta potential of peptide assemblies. The class given is physicochemical. Particulars: self-assembled peptide, 64 μM, Zetasizer, n = 3.
The test system of data set [2] is BMMs. As to the kind of experiment: CCK-8 cytotoxicity assay, BMMs. The class given is cell-based, mice. To be noted: CCK-8, 24 h, different concentrations, n = 3. On the technique in general: Tetrazolium dyes change colour on reduction, which living cells bring about.
Data set [3] deals with T1, CTSK (Homo sapiens, UniProt P43235).
T1 sequence (P43235 115-329): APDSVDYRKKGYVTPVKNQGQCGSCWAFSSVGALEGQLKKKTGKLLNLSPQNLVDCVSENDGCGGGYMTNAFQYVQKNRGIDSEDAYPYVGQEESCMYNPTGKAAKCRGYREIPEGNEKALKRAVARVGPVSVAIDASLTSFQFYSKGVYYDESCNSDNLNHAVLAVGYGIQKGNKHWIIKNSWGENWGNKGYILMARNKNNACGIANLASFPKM
The data set is described as follows: Zeta potential of the enzymolysis reaction mixture with and without CTSK. Type of data set: physicochemical. To be noted: 64 μM peptide.

The nature of data set [4]: Dynamic light scattering. To be noted: self-assembled nanoparticles, aqueous solution pH 7.4, 64 μM, Zetasizer. Type of data set: physicochemical.
A short description of data set [5]: TEM morphology of peptide assemblies in PBS. Particulars: 64 μM in PBS pH 7.4, 8 h incubation.
Data set [6] deals with OCs formed by BMMs. The data set is described as follows: TRAP staining of RANKL-induced OCs formed by BMMs. The class given is cell-based, mice. Particulars: TRAP staining day 6, n = 5.
The test system of data set [7] is OVX mice. Particulars: mouse, in vivo.
Data set [8] concerns OCs. The data set is described as follows: Tunel staining of OCs apoptosis. Type of data set: cell-based, mice. Particulars: BGD 64 μM or ALD 500 μM, 24 h, n = 3.

This note sets out measurements from article PMC12770474 (Nature Communications, 2025).

In data set [1], Bip-FFWKYK-GHPGGPQ-NNNNNN [BGN] registered a Zeta potential of −26.4 mV. In addition, the “cytotoxicity toward BMMs” value in data set [2] is “biocompatible”.
Regarding Bip-FFWKYK-GHPAAPQ-DDDDDD [BAD], in data set [3] (MES buffer pH 5.5, with CTSK 800 ng/ml), the “zeta potential of reaction mixture, presence of CTSK / after cleavage” value is recorded as −9.5 mV. The “zeta potential of reaction mixture, absence of CTSK / before cleavage” value in data set [3] (MES buffer pH 5.5, without CTSK) was −14.3 mV. Also, the “average size of nanoparticles (DLS)” value in data set [4] worked out at 36.6 nm. For the same molecule, the Zeta potential in data set [1] was −20.8 mV. Besides, the “cytotoxicity toward BMMs” value in data set [2] is “consistent cytocompatibility”. Moreover, the “morphology of assemblies (TEM)” value in data set [5] is on record as “dispersed, nearly spherical nanoparticles”. Besides, in data set [6] (peptide (64 μM) added on day 5 of RANKL induction), the “number of TRAP-positive OCs vs RANKL control” value is given as “no significant effect”.
Turning to `NCCCC(O)(P(=O)(O)O)P(=O)(O)O` [ALD, Alendronate], the “micro-CT bone parameters (BMD, BV/TV, Tb.Th, Tb.N, Tb.Sp) vs OVX” value in data set [7] is “significantly improved”. In addition, in data set [8], the “cells undergoing apoptosis (Tunel staining)” value is “a large number of OCs and pre-OCs underwent apoptosis”.
On to `CCCN1CCN(c2ccc(C(=O)NC3(C(=O)NCC#N)CCCCC3)cc2)CC1` [Balicatib, reference compound], for which, in data set [6] (20 nM on day 5 of RANKL induction), the “OCs formation, inhibitor alone” value was “did not inhibit OCs formation”.
With Bip-FFWKYK-GHPGGPQ-KKKKKK [BGK], the Zeta potential result in data set [1] is given as “+11.2 mV”. Further, in data set [2], the “cytotoxicity toward BMMs” value is reported as “exhibited cytotoxicity at 32 μM”.
